Legend:
[1] = system: TTXs-I Na in small-diameter IB4 ^− DRG neurons; conditions: cited from earlier work
[2] = system: animal pain models; conditions: in vivo, cited from earlier work
Source text: […]. Nav channels are structurally related to voltage-gated calcium (Cav) channels, Cav1 and Cav2. […] […].

[3] = system: hCav2.1; test: Whole-cell patch clamp, recombinant hCav2.1 in HEK293; assay type: cell-based, human; conditions: 10 µM
Protocol: Human embryonic kidney (HEK293T) cells containing the SV40 Large T-antigen were cultured at 37°C, 5% CO2 in Dulbecco’s Modified Eagle’s Medium (DMEM, Invitrogen Life Technologies, Australia), supplemented with 10% fetal bovine serum (FBS, Bovigen, Australia), 1% GlutaMAX and penicillin-streptomycin (Invitrogen, Australia). […]
Depolarization-activated Ca^2+ currents (ICa) in transfected HEK293 cells were recorded in the whole-cell patch clamp configuration. Data were recorded using a MultiClamp 700B amplifier, digitized with a DigiData1440 and controlled using Clampex10.7 software (Molecular Devices, United States). […]
Statistical significance (p < 0.05) was determined using unpaired Student’s t-test or 1-way ANOVA followed by a Tukey multiple comparison. […]
Numerous HVA Cav channel isoforms are present in rat DRG neurons. […] We transiently co-transfected the individual Cav channel α-subunits of interest together with β3 and α2δ1 subunits in HEK293 cells and measured whole-cell I Ca currents by patch clamp. […]

SMILES: CSCC[C@@H]1NC(=O)[C@H](Cc2ccc(O)cc2)NC(=O)[C@H](CCCNC(=N)N)NC(=O)[C@@H](NC(=O)[C@@H](N)CC(=O)O)CSSC[C@@H]2NC(=O)[C@@H]3CSSC[C@@H](C(=O)N[C@@H](C)C(=O)N[C@@H](Cc4c[nH]c5ccccc45)C(=O)N[C@@H](CC(=O)O)C(=O)N[C@@H](Cc4ccccc4)C(=O)N[C@H](C(=O)N[C@@H](Cc4ccccc4)C(=O)N[C@H](C(=O)O)[C@@H](C)O)[C@@H](C)O)NC(=O)[C@H](Cc4ccc(O)cc4)NC(=O)[C@H](CCCCN)NC(=O)[C@H](CCSC)NC(=O)[C@H](CCCCN)NC(=O)[C@H](CCCNC(=N)N)NC(=O)[C@H](CCCCN)NC(=O)[C@H](CSSC[C@H](NC(=O)[C@H](CC(=O)O)NC(=O)CNC(=O)[C@H](Cc4ccccc4)NC1=O)C(=O)N[C@@H](CCC(=O)O)C(=O)N[C@@H](CCCCN)C(=O)N[C@@H](CC(=O)O)C(=O)N[C@@H](CCC(=O)O)C(=O)N[C@@H](CC(=O)O)C(=O)N3)NC(=O)CNC(=O)[C@H](CC(C)C)NC(=O)[C@H](Cc1c[nH]cn1)NC(=O)[C@H](CCCCN)NC2=O [Pn3a, µ-Theraphotoxin-Pn3a]
- suppression of TTXs-I Na (in words) [1]: strongly suppress
- analgesia/anti-allodynia on co-administration with opioids (in words) ([2]; 1 mg/kg): significant analgesia/anti-allodynia
- analgesia in various animal pain models (in words) [2]: fails to produce analgesia
- effect in rodent models of acute nociception or inflammatory pain (in words) [2]: ineffective
- inhibition of Cav2.1-mediated current [3]: 58.0 ± 1.8%
